In US20060002934A1 (priority 2002, published 2006):

Experiments:
[1] = test system: parental, wt and mutant E-cadherin expressing MDA-MB-435S cells; assay: Colony formation assay; format: cell-based, human; settings: 2 h treatment, colonies counted after 7 days; parental vs wt vs mutant E-cadherin cells
Description: Chemosensitivity to cisplatin, etoposide and 5-FU of parental, wt and mutant E-cadherin expressing MDA-MB-435S cells was investigated by colony formation assay. Cells were seeded at a density of 2×10^3 cells per 6-well and treated 3 h later for 2 h with cisplatin, etoposide or 5-FU. Colonies were fixed and stained after 7 days with Diff Quick Reagent (Dade Behring, Liederbach, Germany) and the colony number was determined with Scion Image Software from Scion Corporation (Frederick, USA). The percentage of colonies was determined corresponding to non-treated cells.

[2] = test system: parental, wt and mutant E-cadherin expressing MDA-MB-435S cells; assay: Sensitivity profiling by XTT-cell proliferation and viability assay; format: cell-based, human; settings: 48 h treatment, increasing concentrations; parental vs wt vs mutant E-cadherin cells
Description: Cells were seeded at a density of […] cells per well in 96-well microtiter plates (Nunc, Wiesbaden-Biebrich, Germany) in 100 μl DMEM with 10% FCS per-well, and cell proliferation was investigated by XTT-cell proliferation and viability assay (Roche Molecular Biochemicals, Mannheim, Germany). After 24, 48 and 72 h, 50 μl XTT labeling mixture was added. The cleavage of the tetrazolium salt XTT to form a formazan dye that occurs in metabolically active viable cells was quantified spectrophotometrically by measuring the absorbance of the formazan product at 450 nm by an ELISA plate reader. The absorbance values obtained when culture medium without cells was assayed was subtracted from the values obtained with cells. Quadruplicate determinations were performed for each time point. The sensitivity of parental, wt and mutant E-cadherin expressing MDA-MB-435S cells to the chemotherapeutic agents cisplatin, etoposide and 5-FU was investigated by XTT-cell proliferation and viability assay as described above. […] After 48 h, 50 μXTT labeling mixture was added and the absorbance values at 450 nm were measured spectrophotometrically by an ELISA plate reader. The absorbance values obtained when culture medium without cells was assayed, were subtracted from the values obtained with cells. […] The percentage of viable cells was determined corresponding to non-treated cells.

## N.N.[Cl][Pt][Cl] [cisplatin]
[1]
  sensitivity profile, colony formation: reduced sensitivity of wt or mutant E-cadherin expressing MDA-MB-435S cells as compared to parental cells
[2]
  sensitivity profile, cell survival by XTT assay: reduced sensitivity of wt or mutant E-cadherin expressing MDA-MB-435S cells as compared to parental cells
